According to patent US8796256B2 (Janssen Pharmaceutica NV, priority 2010, dated 2014):

target: T1, ERR1 (also known as ERR-α or ERR-1) (Homo sapiens, UniProt P11474); test: TR-FRET assay (disruption of co-activator peptide binding to ERR1 LBD); assay type: biochemical; settings: 6 nM 6His-ERR1LBD, 6 nM GST-SRC-2 peptide; average of 3 independent experiments
T1 sequence (P11474 193-421 limits assumed): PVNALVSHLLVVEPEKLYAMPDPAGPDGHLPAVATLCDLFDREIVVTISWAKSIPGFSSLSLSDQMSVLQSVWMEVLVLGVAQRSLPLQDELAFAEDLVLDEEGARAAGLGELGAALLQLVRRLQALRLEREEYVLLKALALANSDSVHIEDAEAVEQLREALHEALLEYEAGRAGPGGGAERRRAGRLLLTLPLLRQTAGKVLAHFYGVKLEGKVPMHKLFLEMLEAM
Protocol: Time-Resolved Fluorescence Resonance Energy Transfer (TR-FRET) experiments were performed to examine the functional response of ERR1 (also known as ERR-α or ERR-1) ligands. The TR-FRET assay described herein relied on the conformation of ERR1 for binding to a co-activator peptide: when a test compound binds to ERR1 and alters its conformation, it can disrupt the binding of the co-activator peptide. The components of this homogeneous secondary assay included: the ^6His-tagged-ERR1LBD, a GST-labeled-hSRC2 co-activator polypeptide and a fluorescent donor/acceptor pair from CIS bio international htrf/bioassays (Bedford, Mass.) using both an α-GST Europium (Eu) Cryptate label and an α^6His-XL665 (allophycocyanin) fluorophore.
For TR-FRET measurements, the reaction was buffered in 25 mM Tris pH 8, 2.5 mM Hepes, 20 mM KCl, 1 mM DTT, and 0.05 mg/mL BSA (delipidated). The final concentrations of reagents were 6 nM of ERR1LBD, 6 nM GST-SRC-2 peptide, 30 nM Eu cryptate, and 7.5 nM a^6His-XL665. Reactions were allowed to reach equilibrium at 25° C. for 4-18 h before collecting data on the Analyst from LJL Biosystems (Molecular Devices Sunnyvale, Calif.). […] Dose response curves were fitted using a hyperbolic equation and the data reported is the average of 3 independent experiments.

Row | SMILES | EC50
1 | CN1C[C@@H](N2C(=O)S/C(=C\c3ccc4c(cnn4Cc4ccc(Cl)cc4C(F)(F)F)c3)C2=O)[C@@H](F)C1 (relative stereo) [Compound 323, (5Z)-5-({1-[4-Chloro-2-(trifluoromethyl)benzyl]-1H-indazol-5-yl}methylidene)-3-[cis-4-fluoro-1-methylpyrrolidin-3-yl]-1,3-thiazolidine-2,4-dione] | 0.054 µM
2 | CCN1C[C@@H](N2C(=O)S/C(=C\c3ccc4c(cnn4Cc4ccc(Cl)cc4C(F)(F)F)c3)C2=O)[C@@H](F)C1 (relative stereo) [Compound 324, (5Z)-5-({1-[4-Chloro-2-(trifluoromethyl)benzyl]-1H-indazol-5-yl}methylidene)-3-[cis-1-ethyl-4-fluoropyrrolidin-3-yl]-1,3-thiazolidine-2,4-dione] | 0.033 µM
3 | CC(C)N1C[C@@H](N2C(=O)S/C(=C\c3ccc4c(cnn4Cc4ccc(Cl)cc4C(F)(F)F)c3)C2=O)[C@@H](F)C1 (relative stereo) [Compound 325, (5Z)-5-({1-[4-Chloro-2-(trifluoromethyl)benzyl]-1H-indazol-5-yl}methylidene)-3-[cis-4-fluoro-1-(1-methylethyl)pyrrolidin-3-yl]-1,3-thiazolidine-2,4-dione] | 0.087 µM
4 | O=C1S/C(=C\c2ccc3c(cnn3Cc3ccc(Cl)cc3C(F)(F)F)c2)C(=O)N1[C@@H]1CCN(CCO)C[C@H]1F (relative stereo) [Compound 327, (5Z)-5-({1-[4-Chloro-2-(trifluoromethyl)benzyl]-1H-indazol-5-yl}methylidene)-3-[trans-3-fluoro-1-(2-hydroxyethyl)piperidin-4-yl]-1,3-thiazolidine-2,4-dione] | 0.021 µM
5 | CC(C)N1CC[C@@H](N2C(=O)S/C(=C\c3ccc4c(cnn4Cc4ccc(Cl)cc4C(F)(F)F)c3)C2=O)[C@H](F)C1 (relative stereo) [Compound 328, (5Z)-5-({1-[4-Chloro-2-(trifluoromethyl)benzyl]-1H-indazol-5-yl}methylidene)-3-[trans-3-fluoro-1-(1-methylethyl)piperidin-4-yl]-1,3-thiazolidine-2,4-dione] | 0.152 µM
6 | [2H]C([2H])([2H])N1CC[C@@H](N2C(=O)S/C(=C\c3ccc4c(cnn4Cc4ccc(Cl)cc4C(F)(F)F)c3)C2=O)[C@H](F)C1 (relative stereo) [Compound 329, (5Z)-5-({1-[4-Chloro-2-(trifluoromethyl)benzyl]-1H-indazol-5-yl}methylidene)-3-[trans-3-fluoro-1-(1,1,1-d3)-methylpiperidin-4-yl]-1,3-thiazolidine-2,4-dione] | 0.015 µM
7 | [2H]C([2H])([2H])N1CC[C@@H](N2C(=O)S/C(=C\c3ccc4c(cnn4Cc4ccc(C(F)(F)F)cc4C(F)(F)F)c3)C2=O)[C@H](F)C1 (relative stereo) [Compound 330, (5Z)-5-({1-[2,4-Bis(trifluoromethyl)benzyl]-1H-indazol-5-yl}methylidene)-3-[trans-3-fluoro-1-(1,1,1-d3)-methylpiperidin-4-yl]-1,3-thiazolidine-2,4-dione] | 0.091 µM
8 | CC(C)N1CC[C@@H](N2C(=O)S/C(=C\c3ccc4c(cnn4Cc4ccc(C(F)(F)F)cc4C(F)(F)F)c3)C2=O)[C@H](F)C1 (relative stereo) [Compound 331, (5Z)-5-({1-[2,4-Bis(trifluoromethyl)benzyl]-1H-indazol-5-yl}methylidene)-3-[trans-3-fluoro-1-(1-methylethyl)piperidin-4-yl]-1,3-thiazolidine-2,4-dione] | 0.238 µM
9 | CCN1CC[C@@H](N2C(=O)S/C(=C\c3ccc4c(cnn4Cc4ccc(Cl)cc4C(F)(F)F)c3)C2=O)[C@@H](F)C1 (relative stereo) [Compound 332, (5Z)-5-({1-[4-Chloro-2-(trifluoromethyl)benzyl]-1H-indazol-5-yl}methylidene)-3-[cis-1-ethyl-3-fluoropiperidin-4-yl]-1,3-thiazolidine-2,4-dione] | 0.11 µM
10 | Cc1nn(Cc2ccc(Cl)cc2C(F)(F)F)c2ccc(/C=C3\SC(=O)N([C@@H]4CCNC[C@H]4F)C3=O)cc12 (relative stereo) [Compound 333, (5Z)-5-({1-[4-Chloro-2-(trifluoromethyl)benzyl]-3-methyl-1H-indazol-5-yl}methylidene)-3-[trans-3-fluoropiperidin-4-yl]-1,3-thiazolidine-2,4-dione] | 0.048 µM
11 | CCN1CC[C@@H](N2C(=O)S/C(=C\c3ccc4c(c3)c(C)nn4Cc3ccc(Cl)cc3C(F)(F)F)C2=O)[C@H](F)C1 (relative stereo) [Compound 334, (5Z)-5-({1-[4-Chloro-2-(trifluoromethyl)benzyl]-3-methyl-1H-indazol-5-yl}methylidene)-3-[trans-1-ethyl-3-fluoropiperidin-4-yl]-1,3-thiazolidine-2,4-dione] | 0.048 µM
12 | Cc1nn(Cc2ccc(Cl)cc2C(F)(F)F)c2ccc(/C=C3\SC(=O)N([C@@H]4CCN(C)C[C@H]4F)C3=O)cc12 (relative stereo) [Compound 335, (5Z)-5-({1-[4-Chloro-2-(trifluoromethyl)benzyl]-3-methyl-1H-indazol-5-yl}methylidene)-3-[trans-3-fluoro-1-methylpiperidin-4-yl]-1,3-thiazolidine-2,4-dione] | 0.046 µM
13 | CCN1CC[C@@H](N2C(=O)S/C(=C\c3ccc4c(cnn4Cc4ccc(C(F)(F)F)cc4C(F)(F)F)c3)C2=O)[C@H](F)C1 (relative stereo) [Compound 336, (5Z)-5-({1-[2,4-Bis(trifluoromethyl)benzyl]-1H-indazol-5-yl}methylidene)-3-[trans-1-ethyl-3-fluoropiperidin-4-yl]-1,3-thiazolidine-2,4-dione] | 0.293 µM
14 | N#CCN1CC[C@@H](N2C(=O)S/C(=C\c3ccc4c(cnn4Cc4ccc(Cl)cc4C(F)(F)F)c3)C2=O)[C@H](F)C1 (relative stereo) [Compound 338] | 0.024 µM
15 | CCN1CC[C@@H](N2C(=O)S/C(=C\c3ccc4c(cnn4Cc4ccc(Cl)cc4C(F)(F)F)c3)C2=O)[C@H](F)C1 (single isomer, unassigned) [Compound 326, (5Z)-5-({1-[4-Chloro-2-(trifluoromethyl)benzyl]-1H-indazol-5-yl}methylidene)-3-[trans-1-ethyl-3-fluoropiperidin-4-yl]-1,3-thiazolidine-2,4-dione] | 0.14 µM
16 | O=C1S/C(=C\c2ccc3c(cnn3Cc3ccc(Cl)cc3C(F)(F)F)c2)C(=O)N1C[C@@H]1C[C@H](O)CN1 (stereo in doubt) [Compound 286, (5Z)-5-({1-[4-Chloro-2-(trifluoromethyl)benzyl]-1H-indazol-5-yl}methylidene)-3-{[(2S,4S)-4-hydroxypyrrolidin-2-yl]methyl}-1,3-thiazolidine-2,4-dione] | 0.456 µM
17 | O=C1S/C(=C\c2ccc3c(cnn3Cc3ccc(Cl)cc3C(F)(F)F)c2)C(=O)N1CCN1CC[C@H](O)C1 [Compound 1] | 0.13 µM
18 | O=C1S/C(=C\c2ccc3c(cnn3Cc3ccc(Cl)cc3C(F)(F)F)c2)C(=O)N1CCN1CC[C@H](F)C1 [Compound 2, (5Z)-5-({1-[4-Chloro-2-(trifluoromethyl)benzyl]-1H-indazol-5-yl}methylidene)-3-{2-[(3S)-3-fluoro-pyrrolidin-1-yl]ethyl}-1,3-thiazolidine-2,4-dione] | 0.185 µM
